From ChEMBL document CHEMBL3886432, “Purinylpyridinylamino-2,4-difluorophenyl sulfonamide derivative, pharmaceutically acceptable salt thereof, preparation method thereof, and pharmaceutical composition with inhibitory activity against Raf kinase, containing same as active ingredient” (2015)

Target: Serine/threonine-protein kinase B-raf (Homo sapiens, UniProt P15056)
Assay: The solutions in the tube were collected on the bottom via centrifugation and were reacted at 30° C. for 30 minutes.

Chain of Serine/threonine-protein kinase B-raf (P15056 whole entry): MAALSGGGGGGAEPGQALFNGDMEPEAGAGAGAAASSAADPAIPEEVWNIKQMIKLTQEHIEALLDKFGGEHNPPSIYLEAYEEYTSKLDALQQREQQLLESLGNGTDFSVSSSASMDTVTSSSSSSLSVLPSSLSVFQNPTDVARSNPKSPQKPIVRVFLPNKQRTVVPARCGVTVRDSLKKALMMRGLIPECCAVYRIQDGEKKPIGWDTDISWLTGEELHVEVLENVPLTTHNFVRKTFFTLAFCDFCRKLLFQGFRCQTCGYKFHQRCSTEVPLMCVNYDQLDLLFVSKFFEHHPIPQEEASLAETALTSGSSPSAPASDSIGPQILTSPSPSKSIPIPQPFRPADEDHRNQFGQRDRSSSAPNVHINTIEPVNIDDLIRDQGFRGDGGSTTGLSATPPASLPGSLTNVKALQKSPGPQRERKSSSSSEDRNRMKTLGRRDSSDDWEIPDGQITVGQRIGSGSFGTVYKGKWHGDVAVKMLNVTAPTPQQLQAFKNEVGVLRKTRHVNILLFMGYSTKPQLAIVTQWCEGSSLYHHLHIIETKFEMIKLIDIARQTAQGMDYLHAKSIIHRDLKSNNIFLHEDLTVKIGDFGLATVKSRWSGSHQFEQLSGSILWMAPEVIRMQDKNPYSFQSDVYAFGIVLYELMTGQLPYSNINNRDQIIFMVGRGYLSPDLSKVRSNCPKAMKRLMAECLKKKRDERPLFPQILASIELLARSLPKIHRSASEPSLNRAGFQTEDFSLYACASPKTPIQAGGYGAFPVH

**Q.** With `O=S(=O)(Nc1ccc(F)c(Nc2ncccc2-c2ncnc3[nH]cnc23)c1F)c1ccc(Cl)s1` as the molecule, how does the IC50 read?
**A.** Its IC50 is 20 nM.
